Reference: patent US11452682B2, “Toothpaste composition for alleviating dentin hyperesthesia” (HYSENSBIO, priority 2018, dated 2022)

Tested on: DSPP gene
Assay: mRNA level of DSPP gene in MDPC-23 cells by RT-PCR and real-time PCR
Type: cell-based, mouse
Conditions: cultured 48 hours with peptide, relative ratio to mRNA level in untreated control, Gapdh internal control, repeated three times
Method: The MDPC-23 cells cultured in Example 2-1 were treated with the peptides of each group synthesized in Example 1, then cultured for 48 hours. The mRNA level of the DSPP, an odontoblast differentiation marker gene, expressed in the MDPC-23 cells were measured, and the measured mRNA level of each DSPP gene was converted into a relative ratio to the mRNA level of the DSPP gene measured in control (Tables 13 to 24). In addition, the average value of the mRNA level of the DSPP gene measured according to the peptides of each group was compared (FIG. 1B). At this time, as a control, MDPC-23 cells that were not treated with the peptide promoting differentiation of odontoblast were used.
The expression level of the DSPP gene was measured through RT-PCR and real-time PCR analysis: Specifically, total RNA was extracted from the MDPC-23 cells using TRIzol reagent. 2 μg of the total RNA, 1 μl of reverse transcriptase, and 0.5 μg of oligo (oligo; dT) were used to synthesize cDNA. The synthesized cDNA was used in a real-time polymerase chain reaction. The real-time polymerase chain reaction was performed on an ABI PRISM 7500 sequence detection system (Applied Biosystems) and an SYBR GREEN PCR Master Mix (Takara, Japan). The real-time polymerase chain reaction was performed under conditions of 94° C., 1 min; 95° C., 15 sec; 60° C., 34 sec for 40 cycles. Results were analyzed by a comparative cycle threshold (CT) method. At this time, the Gapdh gene was used as the internal control group, and the measured value was repeated three times. The mean value and standard deviation value thereof were used.

Row | Substance | mRNA level of Dspp gene Mean
1 | 30 (KYQRKRKSYK; Novel peptide) [compound 30] | 2.512
2 | 66 (KYKQRKRNKY; Novel peptide) [compound 66] | 1.627
3 | 64 (KYRQKRRSYK; Novel peptide) [compound 64] | 1.967
4 | 69 (KYKQKKKNKY; Novel peptide) [compound 69] | 2.011
5 | 43 (KYRQRRKSKY; Novel peptide) [compound 43] | 1.669
6 | 23 (KYQRKKRNYK; Novel peptide) [compound 23] | 2.171
7 | 5 (KYQRKKKNKY; Novel peptide) [compound 5] | 1.639
8 | 94 (KYKQKRKSYK; Novel peptide) [compound 94] | 3.836
9 | 71 (KYKQKKRNKY; Novel peptide) [compound 71] | 1.879
10 | 77 (KYKQKKKSKY; Novel peptide) [compound 77] | 1.729
11 | 88 (KYKQKRRNYK; Novel peptide) [compound 88] | 4.021
12 | 37 (KYRQKKKNKY; Novel peptide) [compound 37] | 1.597
13 | 24 (KYQRKRRNYK; Novel peptide) [compound 24] | 2.212
14 | 40 (KYRQKRRNKY; Novel peptide) [compound 40] | 2.219
15 | 32 (KYQRKRRSYK; Novel peptide) [compound 32] | 2.219
16 | 87 (KYKQKKRNYK; Novel peptide) [compound 87] | 3.888
17 | 89 (KYKQRKKSYK; Novel peptide) [compound 89] | 4.211
18 | 4 (KYQRRRRNKY; Novel peptide) [compound 4] | 1.855
19 | 31 (KYQRKKRSYK; Novel peptide) [compound 31] | 2.371
20 | 10 (KYQRRKRSKY; Novel peptide) [compound 10] | 1.746
21 | 57 (KYRQRKKSYK; Novel peptide) [compound 57] | 2.039
22 | 50 (KYRQRKRNYK; Novel peptide) [compound 50] | 1.887
23 | 93 (KYKQKKKSYK; Novel peptide) [compound 93] | 4.525
24 | 20 (KYQRRRRNYK; Novel peptide) [compound 20] | 2.553
25 | 44 (KYRQRRRSKY; Novel peptide) [compound 44] | 1.793
26 | 39 (KYRQKKRNKY; Novel peptide) [compound 39] | 1.712

Row | Substance | mRNA level of Dspp gene Mean
27 | 68 (KYKQRRRNKY; Novel peptide) [compound 68] | 1.432
28 | 78 (KYKQKRKSKY; Novel peptide) [compound 78] | 2.635
29 | 21 (KYQRKKKNYK; Novel peptide) [compound 21] | 1.893
30 | 85 (KYKQKKKNYK; Novel peptide) [compound 85] | 3.67
31 | 29 (KYQRKKKSYK; Novel peptide) [compound 29] | 1.883
32 | 91 (KYKQRRKSYK; Novel peptide) [compound 91] | 4.362
33 | 8 (KYQRKRRNKY; Novel peptide) [compound 8] | 1.639
34 | 65 (KYKQRKKNKY; Novel peptide) [compound 65] | 1.723
35 | 11 (KYQRRRKSKY; Novel peptide) [compound 11] | 1.639
36 | 58 (KYRQRKRSYK; Novel peptide) [compound 58] | 1.998
37 | 96 (KYKQKRRSYK; Novel peptide) [compound 96] | 5.211
38 | 45 (KYRQKKKSKY; Novel peptide) [compound 45] | 1.532
39 | 74 (KYKQRKRSKY; Novel peptide) [compound 74] | 2.011
40 | 14 (KYQRKRKSKY; Novel peptide) [compound 14] | 1.846
41 | 48 (KYRQKRRSKY; Novel peptide) [compound 48] | 1.558
42 | 63 (KYRQKKRSYK; Novel peptide) [compound 63] | 1.769
43 | 22 (KYQRKRKNYK; Novel peptide) [compound 22] | 2.412
44 | 62 (KYRQKRKSYK; Novel peptide) [compound 62] | 1.672
45 | 79 (KYKQKKRSKY; Novel peptide) [compound 79] | 2.231
46 | 86 (KYKQKRKNYK; Novel peptide) [compound 86] | 3.705
47 | 2 (KYQRRKRNKY; Novel peptide) [compound 2] | 1.646
48 | 6 (KYQRKRKNKY; Novel peptide) [compound 6] | 1.746
49 | 16 (KYQRKRRSKY; Novel peptide) [compound 16] | 1.739
50 | 35 (KYRQRRKNKY; Novel peptide) [compound 35] | 1.983
51 | 56 (KYRQKRRNYK; Novel peptide) [compound 56] | 1.701
52 | 12 (KYQRRRRSKY; Novel peptide) [compound 12] | 1.548

Row | Substance | mRNA level of Dspp gene Mean
53 | 1 (KYQRRKKNKY; Novel peptide) [compound 1] | 1.754
54 | 75 (KYKQRRKSKY; Novel peptide) [compound 75] | 1.997
55 | 19 (KYQRRRKNYK; Novel peptide) [compound 19] | 1.931
56 | 76 (KYKQRRRSKY; Novel peptide) [compound 76] | 2.351
57 | 34 (KYRQRKRNKY; Novel peptide) [compound 34] | 1.931
58 | 55 (KYRQKKRNYK; Novel peptide) [compound 55] | 1.663
59 | 92 (KYKQRRRSYK; Novel peptide) [compound 92] | 4.211
60 | 67 (KYKQRRKNKY; Novel peptide) [compound 67] | 1.777
61 | 72 (KYKQKRRNKY; Novel peptide) [compound 72] | 2.011
62 | 38 (KYRQKRKNKY; Novel peptide) [compound 38] | 2.116
63 | 83 (KYKQRRKNYK; Novel peptide) [compound 83] | 3.572
64 | 27 (KYQRRRKSYK; Novel peptide) [compound 27] | 1.993
65 | 42 (KYRQRKRSKY; Novel peptide) [compound 42] | 1.586
66 | 70 (KYKQKRKNKY; Novel peptide) [compound 70] | 1.927
67 | 61 (KYRQKKKSYK; Novel peptide) [compound 61] | 2.301
68 | 81 (KYKQRKKNYK; Novel peptide) [compound 81] | 3.092
69 | 59 (KYRQRRKSYK; Novel peptide) [compound 59] | 1.792
70 | 18 (KYQRRKRNYK; Novel peptide) [compound 18] | 2.319
71 | 90 (KYKQRKRSYK; Novel peptide) [compound 90] | 4.811
72 | 36 (KYRQRRRNKY; Novel peptide) [compound 36] | 2.319
73 | 54 (KYRQKRKNYK; Novel peptide) [compound 54] | 1.437
74 | 53 (KYRQKKKNYK; Novel peptide) [compound 53] | 1.592
75 | 51 (KYRQRRKNYK; Novel peptide) [compound 51] | 1.601
76 | 84 (KYKQRRRNYK; Novel peptide) [compound 84] | 3.702
77 | 46 (KYRQKRKSKY; Novel peptide) [compound 46] | 1.887
78 | 52 (KYRQRRRNYK; Novel peptide) [compound 52] | 2.019
